Assay results published in patent publication US12023348B2, “EGR1 targeting molecules for the treatment of inflammatory and hyperproliferative conditions” (The Medical Research, Infrastructure and Health Services …, priority 2015, dated 2024).

Key:
[1] = tested on: SAMD9; test: SAMD9 RNA expression by qRT-PCR in TERC-transformed fibroblasts; format: cell-based, human; conditions: 5 μM, 24 hours, qRT-PCR vs DMSO (FIG. 1C)
Protocol: TERC-transformed fibroblasts were transformed with a pBABE-H2AGFP construct containing the human telomerase gene were cultured High Glucose DMEM, 10% FCS, L-glutamine and Pen-Strep (all cell culture regents from Biological Industries, Israel). Medium was changed every 2-3 days. Cells were used at passage 2-3.
(§1) Of note, when cells were incubated with CaCx and ApDx (NCI, MA USA), they were grown in the appropriate medium with 0.1% FCS only.
RNA was extracted from cell cultures using an RNA extraction kit (Roche Diagnostics, Mahheim, Germany). cDNA was synthesized from 500 ng of total RNA using the Verso cDNA kit (Thermo Fisher Scientific, Waltham, MA, USA). cDNA PCR amplification was carried out using the Fast SYBR Green Master Mix in a StepOnePlus™ Real-Time PCR System (Applied Biosystems, Foster City, CA, USA) with gene-specific intron-crossing oligonucleotide pairs listed in Table 1 (below). For quantification, standard curves were obtained using serially diluted cDNA amplified in the same qRT-PCR run. The melting temperature (Tm) of the amplified products was measured to confirm the specificity of the reaction conditions. […] Each sample was analyzed in triplicate. mRNA expression level for target gene was normalized to GAPDH. The results are based the amount of target, normalized to an endogenous reference (IACTB) and relative to a calibrator, as calculated by 2-ΔΔCT. […]

[2] = tested on: SAMD9; test: SAMD9 RNA expression by qRT-PCR in primary fibroblasts; format: cell-based, human; conditions: for SAMD9 expression in primary fibroblasts: 5 μM, 24 hours, qRT-PCR vs DMSO (FIG. 1C); for Dose and time dependence of SAMD9 up-regulation: primary fibroblasts, 5 μM over 72 hours, 1, 2, 5, 10 μM (FIGS. 2A-B)
Protocol: Primary fibroblasts were isolated from human adult skin and were grown in High Glucose DMEM, 10% Fetal Bovine Serum, L-glutamine and Pen-Strep. Medium was changed every 2-3 days. Cells were used at passage 2-3.
as §1
(§2) RNA was extracted from cell cultures using an RNA extraction kit (Roche Diagnostics, Mahheim, Germany). cDNA was synthesized from 500 ng of total RNA using the Verso cDNA kit (Thermo Fisher Scientific, Waltham, MA, USA). cDNA PCR amplification was carried out using the Fast SYBR Green Master Mix in a StepOnePlus™ Real-Time PCR System (Applied Biosystems, Foster City, CA, USA) with gene-specific intron-crossing oligonucleotide pairs listed in Table 1 (below). For quantification, standard curves were obtained using serially diluted cDNA amplified in the same qRT-PCR run. The melting temperature (Tm) of the amplified products was measured to confirm the specificity of the reaction conditions. Cycling conditions were as follows: 95° C. for 10 minutes, 95° C. for 10 seconds, 62° C. for 15 seconds, and 72° C. for 25 seconds for a total of 40 cycles. Each sample was analyzed in triplicate. mRNA expression level for target gene was normalized to GAPDH. The results are based the amount of target, normalized to an endogenous reference (IACTB) and relative to a calibrator, as calculated by 2-ΔΔCT. All samples were run in triplicate. The expression levels of target genes were expressed as mRNA relative units.
The potential ability of these 31 molecules to induce SAMD9 expression in cell cultures was then scrutinized.

[3] = tested on: imiquimod-induced psoriasiform dermatitis; test: Imiquimod-induced psoriasiform dermatitis in mice; format: in vivo; conditions: for Overt toxicity / Inflammatory infiltrate / Epidermal thickness / Index of proliferation (Ki67): i.p. five times a week, CaCx 22.5 mg/kg or ApDx 7.5 mg/kg; for Overt toxicity: 5 days; for Inflammatory infiltrate: biopsies after 5 days; for Epidermal thickness / Index of proliferation (Ki67): biopsies after 5 days (FIG. 5A); for EGR1 RNA levels in treated skin: quantitative PCR vs vehicle group (FIG. 5B); for EGR1 RNA levels in treated skin / IL-33 RNA levels in treated skin: CaCx 22.5 mg/kg or ApDx 7.5 mg/kg i.p.; for IL-33 RNA levels in treated skin: quantitative PCR vs vehicle group (FIG. 5C)
Protocol: Balb/c mice (Harlan Laboratories Ltd, Jerusalem, Israel), 9 weeks of age, were maintained in a pathogen-free animal facility. Animal care and research protocols had been approved by the institutional committee for animal use. Imiquimod 5% (Perrigo, Israel) was used as topical treatment for the mice on their upper backs. Mice were injected i.p. five times a week with DMSO or 7.5-22.5 mg/kg of ApDx and CaCx, respectively (NCI). 10% DMSO in […] was used as a vehicle control.
(§3) Formaldehyde-fixed 5-μm paraffin-embedded sections from skin biopsies were deparaffinized and treated with 3% H2O2 in methanol for 15 minutes at room temperature, warmed in a microwave oven in citrate buffer in a pressure cooker for 25 minutes, and stained with a monoclonal anti-Ki67 antibody (Thermo Scientific) for 1 hour at room temperature. Following 3 washings (10 minutes each) with phosphate-buffered saline (PBS), the antibodies were imaged using the ABC technique (Zymed Laboratories, South San Francisco, CA) and the slides were counterstained with hematoxylin.
(§4) Epidermal thickness was defined as the distance between the granular layer and the basement membrane and was measured at 10 randomly selected locations for each biopsy using NIS-Elements BR 3.2 software (Nikon, NY USA). An image was taken and was manually measured in the software by selecting an upper and lower border, as defined above. The distance was measured in microns.
as §2
This hypothesis was tested in a murine model in which psoriasiform dermatitis was induced using imiquimod [as previously described in Tortola, L. et al. (2012) J Clin Invest 122, 3965-76].
Balb/c mice were treated topically with imiquimod and were injected five times a week i.p. with either the vehicle, 22.5 mg/kg of CaCx or 7.5 mg/kg of ApDx.
After 5 days, biopsies were obtained from the treated skin and stained for hematoxylin and eosin as well as for Ki67 (FIGS. 4A-F), as a surrogate marker for cellular proliferation.

[4] = tested on: human psoriatic skin graft; test: Chimeric mice carrying human psoriatic skin; format: in vivo; conditions: for Clinical and histological psoriasiform phenotype (average improvement score) / Overt toxicity / Epidermal thickness / Keratinocyte proliferation (Ki67): i.p. five times a week; for Clinical and histological psoriasiform phenotype (average improvement score) / Overt toxicity: 10 days; for Clinical and histological psoriasiform phenotype (average improvement score): ApDx 5 mg/kg (p<0.0001), CaCx 15 mg/kg (p<0.05) (FIG. 6); for Overt toxicity / Epidermal thickness / Keratinocyte proliferation (Ki67): ApDx 5 mg/kg or CaCx 15 mg/kg; for Epidermal thickness / Keratinocyte proliferation (Ki67): biopsies after 10 days (FIGS. 7A-F, 8)
Text: Chimeric mice carrying human psoriatic skin were generated using SCID mice, 2-3 months of age. Animals were maintained in a pathogen-free animal facility. A psoriasis-like phenotype was induced in normal human skin grafted onto the mice by intradermal injection of natural killer/T cells derived from psoriatic patients as previously described [Gilhar A et al. J Invest Dermatol (2011) 131: 118-124].
as §3, §4, §2
To assess the potential therapeutic role of the compounds (ApDx and CaCx) of some embodiments of the invention, the two compounds were administered systemically (i.p) to chimeric mice carrying human psoriatic skin. In short, SCID mice, 2-3 months of age, were maintained in a pathogen-free animal facility. A psoriasis-like phenotype was induced in normal human skin grafted onto the mice by intradermal injection of natural killer/T cells derived from psoriatic patients as previously described [Gilhar A et al. J Invest Dermatol (2011) 131: 118-124]. Two weeks after natural killer/T-cell injection (6 weeks after human skin grafting), mice were injected i.p. five times a week. Four groups of mice were treated as follows: one group of mice was injected five times a week with the vehicle; a second group of mice was injected five times a week ApDx (5 mg/kg); a third group of mice was injected five times a week CaCx (15 mg/kg); and a fourth group of mice, was treated with dexamethasone (DEX) cream applied 5 times a week on the graft, as positive control (DEX was expected to attenuate inflammation in this model). Each group included five mice, and the treatment was performed for a total of 10 days. The grafts were harvested from the four groups of mice, paraffin-embedded, stained for hematoxylin and eosin (H&E), analyzed and scored for the average improvement of the clinical and histological psoriasiform phenotype.

## Cc1c2ccnc(C(N)=O)c2c(C)c2c1[nH]c1ccccc12.Cl [Compound 335142, 6H-Pyrido[4,3-b]carbazole-1-carboxamide, 5,11-dimethyl-, monohydrochloride]
[1]
  SAMD9 expression in TERC-transformed fibroblasts: significantly induce
[2]
  SAMD9 expression in primary fibroblasts: significantly induce
  Dose and time dependence of SAMD9 up-regulation: both dose and time dependent
[3]
  Overt toxicity: No overt toxicity
  Inflammatory infiltrate: did not affect
  Epidermal thickness: decrease
  Index of proliferation (Ki67): decrease
  EGR1 RNA levels in treated skin: significant decrease
  IL-33 RNA levels in treated skin: significant decrease
[4]
  Clinical and histological psoriasiform phenotype (average improvement score): significant clinical and histological attenuation
  Overt toxicity: No overt toxicity
  Epidermal thickness: significant decrease
  Keratinocyte proliferation (Ki67): significant decrease
[4]; quantitative PCR vs vehicle group (FIG. 9), CaCx 15 mg/kg i.p.
  EGR1 RNA levels in treated skin: significant decrease

## CCCN1c2ccc(N)cc2S(=O)(=O)c2cc(Cl)cc(Cl)c21 [Compound 629971, 7,9-dichloro-5,5-dioxo-10-propylphenothiazin-3-amine]
[1]
  SAMD9 expression in TERC-transformed fibroblasts: significantly induce
[2]
  SAMD9 expression in primary fibroblasts: significantly induce
  Dose and time dependence of SAMD9 up-regulation: both dose and time dependent
[3]
  Overt toxicity: No overt toxicity
  Inflammatory infiltrate: did not affect
  Epidermal thickness: decrease
  Index of proliferation (Ki67): decrease
  EGR1 RNA levels in treated skin: significant decrease
  IL-33 RNA levels in treated skin: significant decrease
[4]
  Clinical and histological psoriasiform phenotype (average improvement score): significant clinical and histological attenuation
  Overt toxicity: No overt toxicity
  Epidermal thickness: significant decrease
  Keratinocyte proliferation (Ki67): significant decrease
